Test results reported in patent US8377663B2, “Cosmetic composition comprising hydroxymethionine and 3-aminopropanesulfonic acid” (Sederma, S.A.S., priority 2007, dated 2013).
Marks after values point to notes of the source that are not given here.

Legend:
Keratinocytes = test: Osmolar protection: cell vitality by MTT after hyperosmotic stress; assay type: cell-based; settings: D-Sorbitol 200 mM, 0.06%
Procedure: Keratinocytes were cultured in an appropriate culture medium. Then, cells were exposed to hyperosmolar shock induced by D-Sorbitol 200 mM. […] The osmoprotector effect of the products is estimated by quantifying the cellular survival. MTT Method is used: the measure of the survival is made at T0, T24 h and T48 h after the beginning of the stress. An analysis of the variances is realized on the data. In case of identity of the variances, a test of Student for matched series is then realized on the averages.

keratin K10 = test: Synthesis of keratin 10 by keratinocytes (fluorescence image analysis); assay type: cell-based, human; settings: 14 days; for Synthesis of keratin 10, Fluorescence: HaCat, calcium-poor medium
Procedure: HaCat cells were cultured in the presence or absence of hydroxymethionine-Ca, 3-aminopropanesulfonic Acid alone, and both compounds in a calcium-poor culture medium for 14 days. The incubation time was rather long to enable the keratinocytes to pursue differentiation up to a late stage, thus enabling detection of the emergence of keratin K10. Quantification was conducted by fluorescence image analysis using 1 specific fluorescent probe (anti-keratin monoclonal antibody (Monosan) for keratin K10).

filaggrin = test: Filaggrin synthesis by keratinocytes (fluorescence-image analysis); assay type: cell-based, human; settings: for Filaggrin synthesis, Fluorescence: Table 3, HaCat; for Filaggrin synthesis, Fluorescence / Filaggrin synthesis, Fluorescence, result per 106 cells: calcium-deficient medium; for Filaggrin synthesis, Fluorescence / Filaggrin synthesis, Fluorescence, result per 106 cells / increase in filaggrin synthesis on the control value: 14 days; for Filaggrin synthesis, Fluorescence, result per 106 cells: Table 2, HaCat
Procedure: HaCat cells were cultured to confluence, in a deficient medium in calcium, in the presence or absence of hydroxymethionine-Ca for 14 days. The culture period was rather long in order to enable the keratinocytes to pursue differentiation up to a rather late stage in order to detect the emergence of filaggrin. Quantification was conducted by fluorescence-image analysis after labeling filaggrin with a specific probe (polyclonal antibody, Santa-Cruz). […]

[1] = tested on: Human HaCat keratinocytes; test: Stimulation of keratinocyte proliferation (Hoescht DNA labeling); assay type: cell-based; settings: 14 days; for Keratinocyte proliferation vs. control cell proliferation: n = 3
Procedure: The stimulation of cell growth can be readily measured by uptake of a fluorescent probe that intercalates between DNA bases (Hoescht method). There is a proportional relationship between the quantity of fluorescent DNA taken up and the number of cells. […] Cells and products were incubated during 14 days (37° C./5% CO2), the mediums being renewed at regular intervals. Then lawns were rinsed and broke before being labeled by means of the colouring agent inserting of the DNA HOESCHT 33258. The intensity of the labeling is proportional to the quantity of DNA of the cellular samples. A curve of calibration allows to correlate the intensity of the labeling to the number of cells.

[2] = tested on: Normal Human Keratinocyte (KHN) cells; test: Genes expression profile by DNA array on human keratinocyte culture; assay type: cell-based
Procedure: The genes expression profile modulated by hydroxymethionine was studied on human keratinocyte culture, cultured in the presence or absence of hydroxymethionine-Ca by DNA array studies allowing the detection of the main genes.
Normal Human Keratinocyte (KHN) cells were cultured to confluence before receiving 5×10E-3% hydroxymethionine or 5×10E-2% hydroxymethionine diluted in the culture medium. The negative controls are medium without hydroxymethionine. The KHN were incubated (37° C./5% CO2) at different times before that the culture was stopped to allow the extraction of the total RNA. Then, the quantitation of the mRNA of interest is allowed by the use of ADN biochip and quantified by means of software of interpretations of the fluorescent signals recorded by the sensors.

HaCat cells = test: Intracellular lipid synthesis (red oil staining of lipid vesicles); assay type: cell-based, human; settings: 14 days; for Formation of lipid vesicles, Red-oil staining, result per 106 cells: HaCat
Procedure: The intracellular lipid vesicles characterize a late phase of differentiation. HaCat cells were cultured in the presence or absence of hydroxymethionine-Ca for 14 days. The incubation duration was rather long in order to enable the keratinocytes to pursue differentiation up to a relatively late stage.
Quantification was conducted by image analysis after red oil staining of the lipid vesicles.

transglutaminase = test: Transglutaminase mRNA by quantitative RT-PCR; assay type: cell-based, human; settings: 8 days; for Transglutaminase mRNA, Ct, result per 106 cells: HaCat
Procedure: HaCat cells were cultured in the presence or absence of hydroxymethionine-Ca for 8 days. The quantitative RT-PCR method used on the mRNA for transglutaminase is sensitive and yielded results as of 8 days of culture. Quantification consisted in analysis of the cycle threshold (Ct) parameter, which reflects the amplification power used to obtain a detectable signal.
Amplification is exponantial and of order 1.7 (recopying effectiveness for each cycle).

[3] = concentration 0.02% (mix: each)
[4] = concentration 0.05% (mix: each)

In the case of NCCCS(=O)(=O)O [3-aminopropanesulfonic acid], the “Variation of the number of cells with regard to the control after a hyperosmotic stress (MTT)” value (“Variation of the number of cells” for short) (Keratinocytes; T0) was “+8%”, the “Variation of the number of cells” value (Keratinocytes; T24 h) was “+180%” and the “Variation of the number of cells” value (Keratinocytes; T48 h) was “+247%”. The “differentiating effect, keratin 10” value (keratin K10) was “devoid of differentiating effect”, the “Synthesis of keratin 10, Fluorescence” value (keratin K10; 0.02%) was 0.1 +/− 0.05 arbitrary unit and the “Synthesis of keratin 10, Fluorescence” value (keratin K10; 0.05%) was under 0.1 arbitrary unit. The “Synthesis of keratin 10, Fluorescence” value (keratin K10; 0.06%) was 0.1 +/− 0.06 arbitrary unit, the “Filaggrin synthesis, Change (%) vs control” value (filaggrin; Table 3, 14 days, 0.02%) was 0.8 X and the “Filaggrin synthesis, Change (%) vs control” value (filaggrin; Table 3, 14 days, 0.05%) was “X 1”. For the same compound, the “Filaggrin synthesis, Change (%) vs control” value (filaggrin; Table 3, 14 days, 0.06%) was 0.8 X, the “Filaggrin synthesis, Fluorescence” value (filaggrin; 0.02%) was 1.2 +/− 0.6 arbitrary unit and the “Filaggrin synthesis, Fluorescence” value (filaggrin; 0.05%) was 1.5 +/− 0.7 arbitrary unit. The “Filaggrin synthesis, Fluorescence” value (filaggrin; 0.06%) was 1.2 +/− 0.6 arbitrary unit, the “effect on cell proliferation” value ([1]; 0.02% and 0.05%) was “no stimulant effect” and the “Keratinocyte proliferation vs. control cell proliferation” value [1, 3] was 0%. For the same compound, the “Keratinocyte proliferation vs. control cell proliferation” value [1, 4] was 0%.
In the case of CSCCC(O)C(=O)O (centres unmarked) [Hydroxymethionine-Ca (AHMC), 2-hydroxy-4-(thiomethyl)butanoic acid], the “properties shown by the gene expression study” value [2] was “proliferative, pro-differentiation and proteinogenic properties but also DNA repairing properties”, the “activation of the gene HK2 involved in the proliferation” value ([2]; 5×10E-3% or 5×10E-2%) was “marked activation” and the “activation of the gene endothelin 1 involved in the cellular differentiation” value ([2]; 5×10E-3% or 5×10E-2%) was “marked activation”. The “activity of the gene CACNA1C (subunit alpha 1 of the voltage-dependent calcium channel)” value ([2]; 5×10E-3% or 5×10E-2%) was “increased activity”, the “activity of the gene for RYR (ryanodine receptor)” value ([2]; 5×10E-3% or 5×10E-2%) was “increased activity” and the “differentiation activities (ornithine decarboxylase, keratins, involucrin, intermediate filaments, claudin genes)” value ([2]; 5×10E-3% or 5×10E-2%) was “strongly expressed”. For the same compound, the “gene TGD (thymidine DNA glycolase)” value ([2]; 5×10E-3% or 5×10E-2%) was “activated”, the “Variation of the number of cells” value (Keratinocytes; T0) was “+54%” and the “Variation of the number of cells” value (Keratinocytes; T24 h) was “+108%”. The “Variation of the number of cells” value (Keratinocytes; T48 h) was “+112%”, the “Formation of lipid vesicles, Change (%) vs control” value (“Formation … Change (%) vs control” for short) (HaCat cells; 0.015%) was “+77%” and the “Formation … Change (%) vs control” value (HaCat cells; 0.03%) was “+58%”. For the same compound, the “Formation … Change (%) vs control” value (HaCat cells; 0.06%) was “+66%”, the “Formation of lipid vesicles, Red-oil staining, result per 106 cells” value (“Formation of lipid vesicles … per 106 cells” below) (HaCat cells; 0.015%) was 2.8 ± 0.3 arbitrary unit and the “Formation of lipid vesicles … per 106 cells” value (HaCat cells; 0.03%) was 2.5 ± 0.7 arbitrary unit. For the same compound, the “Formation of lipid vesicles … per 106 cells” value (HaCat cells; 0.06%) was 2.6 ± 0.6 arbitrary unit, the “Synthesis of keratin 10, Change vs control” value (shortened to “Synthesis … Change vs control”) (keratin K10; 0.02%) was “X 45” and the “Synthesis … Change vs control” value (keratin K10; 0.05%) was “X 57”. The “Synthesis … Change vs control” value (keratin K10; 0.06%) was “X 44”, the “Synthesis of keratin 10, Fluorescence” value (keratin K10; 0.02%) was 4.0 arbitrary unit and the “Synthesis of keratin 10, Fluorescence” value (keratin K10; 0.05%) was 5.1 +/− 1.3 arbitrary unit. For the same compound, the “Synthesis of keratin 10, Fluorescence” value (keratin K10; 0.06%) was 3.9 +/− 1.7 arbitrary unit, the “Filaggrin synthesis, Change (%) vs control” value (filaggrin; Table 2, 14 days, 0.015%) was “+379%” and the “Filaggrin synthesis, Change (%) vs control” value (filaggrin; Table 2, 14 days, 0.03%) was “+1072%”. The “Filaggrin synthesis, Change (%) vs control” value (filaggrin; Table 2, 14 days, 0.06%) was “+943%”, the “Filaggrin synthesis, Fluorescence, result per 106 cells” value (“Filaggrin synthesis … per 106 cells” for short) (filaggrin; 0.015%) was 1.9 ± 1.4 arbitrary unit and the “Filaggrin synthesis … per 106 cells” value (filaggrin; 0.03%) was 4.6 ± 3.1 arbitrary unit. The “Filaggrin synthesis … per 106 cells” value (filaggrin; 0.06%) was 4.1 ± 3.5 arbitrary unit, the “Filaggrin synthesis, Change (%) vs control” value (filaggrin; Table 3, 14 days, 0.02%) was 3.3 X and the “Filaggrin synthesis, Change (%) vs control” value (filaggrin; Table 3, 14 days, 0.05%) was 3.4 X. For the same compound, the “Filaggrin synthesis, Change (%) vs control” value (filaggrin; Table 3, 14 days, 0.06%) was 2.7 X, the “Filaggrin synthesis, Fluorescence” value (filaggrin; 0.02%) was 5.0 arbitrary unit and the “Filaggrin synthesis, Fluorescence” value (filaggrin; 0.05%) was 5.2 arbitrary unit. The “Filaggrin synthesis, Fluorescence” value (filaggrin; 0.06%) was 4.2 arbitrary unit, the “increase in filaggrin synthesis on the control value” (filaggrin; concentration equivalent to 0.06%) was at most 10 fold and the “increase in filaggrin synthesis on the control value” (filaggrin; lowest concentration) was 3.7 fold. The “production of filaggrine” value (filaggrin; used concentrations, 14 days after contact) was “strongly stimulates”, the “Transglutaminase mRNA, Change (%) vs control” value (transglutaminase; 0.015%) was “+322%*” and the “Transglutaminase mRNA, Change (%) vs control” value (transglutaminase; 0.03%) was “+661%*”. For the same compound, the “Transglutaminase mRNA, Change (%) vs control” value (transglutaminase; 0.06%) was “+814%*”, the “increase in mRNA coding for transglutaminase” value (transglutaminase; dose-dependent) was 8 fold and the “Transglutaminase mRNA, Ct, result per 106 cells” value (transglutaminase; 0.015%) was 23.7 ± 0.3 amplification unit. For the same compound, the “Transglutaminase mRNA, Ct, result per 106 cells” value (transglutaminase; 0.03%) was 22.9 ± 0.1 amplification unit, the “Transglutaminase mRNA, Ct, result per 106 cells” value (transglutaminase; 0.06%) was 22.5 ± 0.3 amplification unit and the “Keratinocyte proliferation vs. control cell proliferation” value [1, 3] was 223%. The “Keratinocyte proliferation vs. control cell proliferation” value [1, 4] was 170%.
